Laboratory results published in ChEMBL document CHEMBL1145498, “A systematic interaction map of validated kinase inhibitors with Ser/Thr kinases” (Proc Natl Acad Sci U S A, 2007).

Tests used:
[1] = biological target: Calcium/calmodulin-dependent protein kinase type 1D (Homo sapiens) (UniProt Q8IU85)
[2] = biological target: T1, Calcium/calmodulin-dependent protein kinase type IV (Homo sapiens) (UniProt Q16566)
T1 sequence (whole entry): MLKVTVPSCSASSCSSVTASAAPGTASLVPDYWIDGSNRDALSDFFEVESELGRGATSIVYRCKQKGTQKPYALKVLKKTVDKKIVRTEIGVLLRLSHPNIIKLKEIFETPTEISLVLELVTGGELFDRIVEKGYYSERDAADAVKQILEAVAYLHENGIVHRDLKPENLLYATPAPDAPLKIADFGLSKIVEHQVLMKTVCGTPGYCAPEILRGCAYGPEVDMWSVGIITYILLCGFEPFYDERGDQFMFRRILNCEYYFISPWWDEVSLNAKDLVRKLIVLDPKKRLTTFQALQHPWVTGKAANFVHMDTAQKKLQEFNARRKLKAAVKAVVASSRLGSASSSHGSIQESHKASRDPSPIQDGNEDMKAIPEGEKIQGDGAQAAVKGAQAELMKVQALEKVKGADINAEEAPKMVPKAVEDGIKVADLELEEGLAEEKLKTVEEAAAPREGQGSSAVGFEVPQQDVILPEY

[3] = biological target: Glycogen synthase kinase-3 beta (Homo sapiens, UniProt P49841)
Glycogen synthase kinase-3 beta, sequence (P49841 whole entry, looked up): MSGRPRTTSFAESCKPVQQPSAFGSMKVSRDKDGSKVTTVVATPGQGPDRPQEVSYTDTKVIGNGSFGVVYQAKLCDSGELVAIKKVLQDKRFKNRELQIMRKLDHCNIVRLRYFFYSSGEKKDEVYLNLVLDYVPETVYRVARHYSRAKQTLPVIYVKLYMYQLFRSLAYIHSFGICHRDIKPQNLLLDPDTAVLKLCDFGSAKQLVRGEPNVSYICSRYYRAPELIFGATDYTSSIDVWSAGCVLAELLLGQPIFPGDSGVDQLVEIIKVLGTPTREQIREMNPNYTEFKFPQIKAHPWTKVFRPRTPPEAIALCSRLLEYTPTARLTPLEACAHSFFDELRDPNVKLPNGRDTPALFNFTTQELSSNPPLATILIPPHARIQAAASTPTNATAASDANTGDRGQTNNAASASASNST

[4] = biological target: T2, Mitogen-activated protein kinase kinase kinase 5 (Homo sapiens) (UniProt Q99683)
T2 sequence (whole entry): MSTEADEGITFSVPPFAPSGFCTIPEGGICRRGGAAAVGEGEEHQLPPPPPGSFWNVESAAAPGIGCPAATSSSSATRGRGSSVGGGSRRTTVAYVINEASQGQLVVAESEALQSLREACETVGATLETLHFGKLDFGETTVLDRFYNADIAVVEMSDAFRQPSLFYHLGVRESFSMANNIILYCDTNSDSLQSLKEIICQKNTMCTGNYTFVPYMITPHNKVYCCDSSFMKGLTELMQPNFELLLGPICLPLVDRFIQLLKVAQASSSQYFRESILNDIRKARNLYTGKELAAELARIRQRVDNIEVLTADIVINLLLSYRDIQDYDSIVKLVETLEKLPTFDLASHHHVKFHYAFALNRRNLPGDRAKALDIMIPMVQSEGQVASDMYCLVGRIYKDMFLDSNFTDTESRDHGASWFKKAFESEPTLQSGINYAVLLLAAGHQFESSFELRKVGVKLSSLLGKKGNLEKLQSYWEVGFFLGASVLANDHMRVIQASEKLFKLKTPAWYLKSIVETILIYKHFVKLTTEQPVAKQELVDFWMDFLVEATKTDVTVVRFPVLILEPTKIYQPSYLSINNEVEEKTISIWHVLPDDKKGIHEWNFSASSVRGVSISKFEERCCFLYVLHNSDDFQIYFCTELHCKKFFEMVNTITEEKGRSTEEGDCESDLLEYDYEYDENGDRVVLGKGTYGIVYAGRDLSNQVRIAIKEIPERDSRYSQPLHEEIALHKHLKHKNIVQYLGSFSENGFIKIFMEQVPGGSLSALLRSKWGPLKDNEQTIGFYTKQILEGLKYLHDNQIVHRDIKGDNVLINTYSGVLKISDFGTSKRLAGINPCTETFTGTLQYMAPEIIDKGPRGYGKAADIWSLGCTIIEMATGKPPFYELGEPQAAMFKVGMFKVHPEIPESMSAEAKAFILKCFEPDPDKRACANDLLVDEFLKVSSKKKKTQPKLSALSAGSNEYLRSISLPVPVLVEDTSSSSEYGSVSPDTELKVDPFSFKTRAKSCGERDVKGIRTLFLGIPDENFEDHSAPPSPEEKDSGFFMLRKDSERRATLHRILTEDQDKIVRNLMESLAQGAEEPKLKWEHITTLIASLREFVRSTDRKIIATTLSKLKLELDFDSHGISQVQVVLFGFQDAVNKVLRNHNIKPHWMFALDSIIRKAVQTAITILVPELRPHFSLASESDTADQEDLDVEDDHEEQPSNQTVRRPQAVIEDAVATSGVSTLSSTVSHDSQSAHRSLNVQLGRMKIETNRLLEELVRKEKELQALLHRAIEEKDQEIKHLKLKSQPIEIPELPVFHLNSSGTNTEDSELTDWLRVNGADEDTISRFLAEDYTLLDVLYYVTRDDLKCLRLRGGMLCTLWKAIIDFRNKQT

[5] = biological target: Mitogen-activated protein kinase 6 (Homo sapiens) (UniProt Q16659)
Mitogen-activated protein kinase 6 (Homo sapiens), sequence (Q16659 whole entry): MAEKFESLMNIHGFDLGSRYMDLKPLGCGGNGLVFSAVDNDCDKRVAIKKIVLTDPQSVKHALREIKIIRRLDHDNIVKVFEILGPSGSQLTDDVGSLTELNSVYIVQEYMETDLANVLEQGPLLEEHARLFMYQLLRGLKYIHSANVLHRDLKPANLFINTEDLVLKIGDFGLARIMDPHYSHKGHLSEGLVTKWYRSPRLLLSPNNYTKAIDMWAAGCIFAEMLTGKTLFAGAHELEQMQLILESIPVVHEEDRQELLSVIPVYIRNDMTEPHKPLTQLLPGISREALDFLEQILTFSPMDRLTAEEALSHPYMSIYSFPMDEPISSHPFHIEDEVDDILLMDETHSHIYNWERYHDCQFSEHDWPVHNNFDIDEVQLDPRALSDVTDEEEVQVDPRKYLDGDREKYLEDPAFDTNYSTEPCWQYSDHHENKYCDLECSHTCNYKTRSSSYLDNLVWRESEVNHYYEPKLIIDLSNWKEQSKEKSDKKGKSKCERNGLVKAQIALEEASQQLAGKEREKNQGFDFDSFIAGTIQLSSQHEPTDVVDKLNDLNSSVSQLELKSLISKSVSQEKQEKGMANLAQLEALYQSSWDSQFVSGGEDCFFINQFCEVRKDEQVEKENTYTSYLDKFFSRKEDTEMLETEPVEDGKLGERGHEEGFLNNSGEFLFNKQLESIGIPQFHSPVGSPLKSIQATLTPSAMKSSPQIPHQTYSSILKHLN

[6] = biological target: T3, Serine/threonine-protein kinase Nek2 (Homo sapiens) (UniProt P51955)
T3 sequence (whole entry): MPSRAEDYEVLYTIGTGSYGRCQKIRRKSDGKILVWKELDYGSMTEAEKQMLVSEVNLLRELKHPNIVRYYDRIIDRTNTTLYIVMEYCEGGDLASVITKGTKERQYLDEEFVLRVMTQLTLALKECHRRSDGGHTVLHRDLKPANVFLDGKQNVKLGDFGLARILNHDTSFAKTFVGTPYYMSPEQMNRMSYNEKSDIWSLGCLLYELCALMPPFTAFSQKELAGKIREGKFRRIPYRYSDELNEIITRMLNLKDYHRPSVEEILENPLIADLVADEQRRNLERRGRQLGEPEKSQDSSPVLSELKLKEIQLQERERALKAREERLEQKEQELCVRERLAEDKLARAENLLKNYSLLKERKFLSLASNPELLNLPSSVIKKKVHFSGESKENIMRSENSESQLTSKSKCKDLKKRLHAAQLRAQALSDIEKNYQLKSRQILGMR

[7] = biological target: Serine/threonine-protein kinase PAK 4 (Homo sapiens) (UniProt O96013)
Serine/threonine-protein kinase PAK 4 (Homo sapiens), sequence (O96013 whole entry, looked up): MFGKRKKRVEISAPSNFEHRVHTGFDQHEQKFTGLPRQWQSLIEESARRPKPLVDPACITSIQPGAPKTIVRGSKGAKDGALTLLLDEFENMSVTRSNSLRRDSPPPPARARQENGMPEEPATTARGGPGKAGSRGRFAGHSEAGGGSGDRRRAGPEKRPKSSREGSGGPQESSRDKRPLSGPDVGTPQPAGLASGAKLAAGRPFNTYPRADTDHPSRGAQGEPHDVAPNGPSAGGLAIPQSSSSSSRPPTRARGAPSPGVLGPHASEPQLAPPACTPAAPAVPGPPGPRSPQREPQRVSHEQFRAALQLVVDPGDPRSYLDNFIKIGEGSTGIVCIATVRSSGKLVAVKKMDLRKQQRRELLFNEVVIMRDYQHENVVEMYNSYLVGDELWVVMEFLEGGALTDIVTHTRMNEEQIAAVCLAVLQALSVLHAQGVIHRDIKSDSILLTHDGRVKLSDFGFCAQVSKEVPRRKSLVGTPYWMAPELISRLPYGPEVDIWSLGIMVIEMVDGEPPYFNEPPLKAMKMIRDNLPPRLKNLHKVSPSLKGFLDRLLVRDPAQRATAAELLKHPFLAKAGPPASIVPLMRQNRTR

[8] = biological target: Serine/threonine-protein kinase pim-2 (Homo sapiens, UniProt Q9P1W9)
Serine/threonine-protein kinase pim-2, sequence (Q9P1W9 whole entry, looked up): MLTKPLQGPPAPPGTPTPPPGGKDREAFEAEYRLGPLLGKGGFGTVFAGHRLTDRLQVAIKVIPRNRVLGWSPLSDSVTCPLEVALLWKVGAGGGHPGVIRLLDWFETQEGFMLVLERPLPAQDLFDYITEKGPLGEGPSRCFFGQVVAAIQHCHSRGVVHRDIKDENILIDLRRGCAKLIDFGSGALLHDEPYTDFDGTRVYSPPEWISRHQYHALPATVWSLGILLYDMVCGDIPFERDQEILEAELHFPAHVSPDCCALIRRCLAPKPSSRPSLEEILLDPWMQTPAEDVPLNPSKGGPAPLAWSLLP

[9] = biological target: Ribosomal protein S6 kinase alpha-3 (Homo sapiens) (UniProt P51812)
Ribosomal protein S6 kinase alpha-3 (Homo sapiens), sequence (P51812 whole entry): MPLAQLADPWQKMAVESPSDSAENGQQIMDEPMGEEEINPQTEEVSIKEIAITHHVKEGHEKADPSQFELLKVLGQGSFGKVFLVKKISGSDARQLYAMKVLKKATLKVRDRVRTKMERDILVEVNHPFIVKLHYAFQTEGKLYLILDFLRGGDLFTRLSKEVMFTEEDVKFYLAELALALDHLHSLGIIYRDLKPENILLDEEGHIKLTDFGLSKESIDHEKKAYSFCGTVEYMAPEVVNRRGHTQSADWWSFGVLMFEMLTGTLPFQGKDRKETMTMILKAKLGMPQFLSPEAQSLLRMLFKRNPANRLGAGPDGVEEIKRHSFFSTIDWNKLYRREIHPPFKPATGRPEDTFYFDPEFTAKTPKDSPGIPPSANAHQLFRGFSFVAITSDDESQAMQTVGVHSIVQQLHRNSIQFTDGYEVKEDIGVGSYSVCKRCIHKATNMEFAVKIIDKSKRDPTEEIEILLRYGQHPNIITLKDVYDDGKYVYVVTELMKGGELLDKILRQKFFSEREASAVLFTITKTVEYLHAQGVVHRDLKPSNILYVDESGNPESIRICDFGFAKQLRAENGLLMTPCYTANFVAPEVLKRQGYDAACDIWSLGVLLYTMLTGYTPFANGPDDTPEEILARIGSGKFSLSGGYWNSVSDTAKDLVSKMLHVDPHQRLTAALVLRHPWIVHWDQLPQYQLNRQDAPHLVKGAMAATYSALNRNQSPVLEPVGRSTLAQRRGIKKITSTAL

[10] = biological target: T4, Lymphokine-activated killer T-cell-originated protein kinase (Homo sapiens) (UniProt Q96KB5)
T4 sequence (whole entry): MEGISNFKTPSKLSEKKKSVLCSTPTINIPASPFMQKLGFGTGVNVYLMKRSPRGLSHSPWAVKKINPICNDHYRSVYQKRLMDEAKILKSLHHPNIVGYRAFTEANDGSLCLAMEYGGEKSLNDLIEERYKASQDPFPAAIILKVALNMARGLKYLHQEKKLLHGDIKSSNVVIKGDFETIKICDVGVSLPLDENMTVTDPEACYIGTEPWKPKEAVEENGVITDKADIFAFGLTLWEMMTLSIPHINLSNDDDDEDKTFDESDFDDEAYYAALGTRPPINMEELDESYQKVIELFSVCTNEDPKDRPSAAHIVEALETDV

Calcium/calmodulin-dependent protein kinase type 1D (Homo sapiens), sequence (Q8IU85 whole entry, looked up): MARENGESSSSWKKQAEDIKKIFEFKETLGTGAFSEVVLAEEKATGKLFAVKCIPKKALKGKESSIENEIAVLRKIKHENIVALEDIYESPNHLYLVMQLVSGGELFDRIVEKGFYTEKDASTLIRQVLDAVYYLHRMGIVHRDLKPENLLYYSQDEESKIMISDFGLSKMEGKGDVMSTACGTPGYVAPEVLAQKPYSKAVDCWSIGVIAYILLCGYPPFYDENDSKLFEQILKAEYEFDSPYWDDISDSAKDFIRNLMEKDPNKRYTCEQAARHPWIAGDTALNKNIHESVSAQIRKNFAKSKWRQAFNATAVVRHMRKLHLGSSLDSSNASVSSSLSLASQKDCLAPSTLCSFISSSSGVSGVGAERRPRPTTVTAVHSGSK

Row | SMILES | ΔTm [1] [°C] | ΔTm [2] [°C] | ΔTm [3] [°C] | ΔTm [4] [°C] | ΔTm [5] [°C] | ΔTm [6] [°C] | ΔTm [7] [°C] | ΔTm [8] [°C] | ΔTm [9] [°C] | ΔTm [10] [°C]
1 | O=S(=O)(c1cccc2c(Cl)cccc12)N1CCCNCC1 | 0 | 0 | 0.2 | 0.6 | 0 | 0.9 | 0.8 | 1.7 | 0.5 | 0
2 | CN(C)CCCn1cc(C2=C(c3c[nH]c4ccccc34)C(=O)NC2=O)c2ccccc21 [GF-109203] | 1.1 | 1.1 | 8.7 | 0.9 | -0.2 | 0.7 | 2.5 | 5.2 | 7.8 | 0.2
3 | CN(C)S(=O)(=O)c1ccc2c(c1)/C(=C/c1cc3c([nH]1)CCCC3)C(=O)N2 | 1.4 | 2.6 | -0.3 | 1.2 | 0.6 | 2.8 | 1.3 | 0.4 | 7.5 | 1
4 | CSc1nc(-c2ccc(F)cc2)c(-c2ccnc(NC(C)c3ccccc3)c2)[nH]1 (racemic) | 0.5 | -0.3 | 0 | 0.4 | 0.4 | 0.9 | 0.2 | -0.2 | 0.4 | 0.4
5 | C[S+]([O-])c1ccc(CSc2nc(-c3ccc(F)cc3)c(-c3ccncc3)[nH]2)cc1 (stereo not given) | 0 | 0 | 0 | 0.9 | -0.2 | 0.5 | 0.1 | 0.4 | 0.1 | 0.5
6 | O=C1c2ccccc2-[n+]2ccc3c([nH]c4ccccc43)c21 [FASCAPLYSIN CHLORIDE] | -4.3 | 0.7 | 0.1 | -2.6 | -1.9 | -2 | -0.6 | -2.4 | -0.1 | 0.6
7 | O=C1C(Cl)=C(N2C(=O)CCC2=O)C(=O)c2ccccc21 | -9.6 | 1.2 | -3.5 | -1.1 | -1.1 | 2.5 | -0.4 | -4.1 | -0.8 | -4.4
8 | Cl.Cn1cc(C2=C(c3ccc4cc5n(c4c3)CCC(CN)C5)C(=O)NC2=O)c2ccccc21 (stereo not given) | 0.3 | 0.1 | 6.7 | 0 | 0.7 | 1.1 | 1.6 | 3.1 | 6 | -0.6
9 | CC(C)(C)n1nc(-c2ccc(Cl)cc2)c2c(N)ncnc21 | -0.2 | 0 | 0.5 | 0.3 | -0.2 | 0.3 | 1 | 0.2 | 2.1 | 0.7
10 | Cc1ccc(NC(=O)c2cccc(N(C)C)c2)cc1NC(=O)c1ccc(O)cc1 | 0.3 | 0 | 0 | -0.4 | 0.4 | 0.3 | 0.4 | 0 | 0.2 | 0.4
11 | N#C/C(=C(/N)Sc1ccc(N)cc1)c1ccccc1C(F)(F)F | 0.3 | 0.5 | -0.1 | -0.1 | 0.4 | 1.3 | 1.3 | 0.2 | 0 | -0.4
12 | c1ccc(-c2n[nH]c3c2oc2ccccc23)cc1 | 0.6 | -0.2 | 0.8 | 1.4 | 0.1 | 0.1 | -0.3 | 1.1 | 0.8 | -0.2
13 | C/C(O)=C(\C#N)C(=O)Nc1cc(Br)ccc1Br | 0.3 | 0.1 | 1.8 | -0.7 | 0.4 | 0.9 | -0.3 | 1.9 | 0.6 | 0.8
14 | Cn1cnc2c(NCc3ccccc3)nc(NCCO)nc21 [OLOMOUCINE] | -0.1 | 0.1 | 0.1 | 0.1 | 0.2 | 1.1 | 0.4 | 0.1 | 0.1 | 0.4
15 | Cc1c2ccncc2c(C)c2c1[nH]c1ccccc12 [ELLIPTECINE] | 1.2 | 0.4 | 5.6 | 0.4 | 1.5 | 0.5 | 0.7 | 7.1 | 3.7 | 0.3
